Source: patent US8278309B2, “Synthetic mimetics of host defense and uses thereof” (priority 2008, dated 2012)
Where a name gives a salt, the structure may show the parent alone. Read-outs that look alike come from different tables or passages of the source.

How the values were obtained:
[1] = system: Entero. faecalis; experiment: MIC broth microdilution, Gram-positive clinical isolates; type: cell-based; conditions: Enterococcus faecalis; Entero. faecalis; 2-3 isolates/organism; read-out: MIC
Protocol: (§1) Compound A was evaluated in vitro in accordance with defined CLSI documents specific to the organisms (aerobic, anaerobic or yeast) tested in this study. Ampicillin, ceftazidime, cefuroxime, ciprofloxacin, linezolid, and vancomycin were tested alongside as comparator agents for aerobic bacteria; clindamycin and metronidazole were tested as comparators for anaerobes; fluconazole was tested as a comparator for yeast isolates. Stock solutions of Compound A were prepared in dimethyl sulfoxide (DMSO). Ampicillin, ceftazidime, cefuroxime, ciprofloxacin, linezolid, vancomycin, metronidazole, clindamycin, and fluconazole were prepared each according to its manufacturer's guideline.
(§2) Minimum inhibitory concentrations (MICs) in μg/ml were determined according to CLSI guideline M7-A7 by broth microdilution. All aerobes were tested using Mueller-Hinton broth medium with the exception of Streptococcus spp., which were tested using cation-adjusted Mueller-Hinton broth supplemented with 2-5% lysed horse blood.

[2] = system: Entero. faecium (VRE); experiment: as above; type: cell-based; conditions: Enterococcus faecium; Entero. faecium (VRE); 2-3 isolates/organism; read-out: MIC
Protocol: as §1, §2

[3] = system: Staph. aureus (MRSA); experiment: as above; type: cell-based; conditions: Staphylococcus aureus; Staph. aureus (MRSA); 2-3 isolates/organism; read-out: MIC
Protocol: as §1, §2

[4] = system: Staph. saprophyticus; experiment: as above; type: cell-based; conditions: Staphylococcus saprophyticus; Staph. saprophyticus; 2-3 isolates/organism; read-out: MIC
Protocol: as §1, §2

[5] = system: Staph. spidermidis; experiment: as above; type: cell-based; conditions: Staph. spidermidis; 2-3 isolates/organism; read-out: MIC
Protocol: as §1, §2

[6] = system: Staph. spp. (coagulase−); experiment: as above; type: cell-based; conditions: Staph. spp. (coagulase−); 2-3 isolates/organism; read-out: MIC
Protocol: as §1, §2

[7] = system: Strept. agalactiae; experiment: as above; type: cell-based; conditions: Streptococcus agalactiae; Strept. agalactiae; 2-3 isolates/organism; read-out: MIC
Protocol: as §1, §2

[8] = system: Strept. pneumoniae; experiment: as above; type: cell-based; conditions: Streptococcus pneumoniae; Strept. pneumoniae; 2-3 isolates/organism; read-out: MIC
Protocol: as §1, §2

[9] = system: Strept. pyogenes; experiment: as above; type: cell-based; conditions: Streptococcus pyogenes; Strept. pyogenes; 2-3 isolates/organism; read-out: MIC
Protocol: as §1, §2

[10] = system: Strept. viridians; experiment: as above; type: cell-based; conditions: Strept. viridians; 2-3 isolates/organism; read-out: MIC
Protocol: as §1, §2

[11] = system: Klebsiella oxytoca; experiment: MIC broth microdilution, Gram-negative clinical isolates; type: cell-based; conditions: 2-3 isolates/organism, read-out: MIC
Protocol: as §1, §2

[12] = system: MSSA 27660; experiment: Mouse peritonitis/sepsis model against MSSA 27660; type: in vivo
[13] = system: S. aureus (ATCC 13709); experiment: Mouse sepsis model, S. aureus infection; type: in vivo; conditions: for protection from mortality: 1 & 7 hr after inoculation, observed 6 days
Protocol: Sterile saline, vancomycin, or Compound A were administered to separate groups of 8-week old female CD-1 mice (8 mice/group) 1 and 7 hours after i.p. injections of S. aureus (ATCC 13709, 5×10^7 cfu/mL in 5% mucin, 0.5 mL/mouse). Compound A was dissolved in 50%/50% v/v sterile USP purified water/TBS. A suspension of S. aureus was prepared from colonies transferred from the TSA plate to sterile PBS. An aliquot of the stock suspension was added to 5% mucin for a final concentration of about 5×10^7 cfu/mL.

[14] = Pharmacokinetics in rats; type: in vivo; conditions: Crl:CD (SD), plasma, iv; rat, 5 mg/kg, i.v. bolus
Protocol: Crl:CD (SD) rats were administered Compound A by i.v. bolus injection at the indicated dosages. Plasma was prepared from blood samples taken at 9 time points (n=3) over 28 hours. Compound levels were determine by HPLC-MS/MS. All animals were fitted with two jugular vein cannula (JVC), one each for dose administration and blood collection. Each route of administration was dosed as N=3. Animals were supplied with a commercial rodent diet and water ad libitum. Each rat received a bolus dosed via the appropriate route of administration at time zero on the day of dosing.
Each blood sample was collected from the rats via a JVC and placed into chilled polypropylene tubes containing sodium EDTA as an anticoagulant. Samples were centrifuged at a temperature of 4° C. and at a speed of 13,000 rpm for 5 minutes. Samples were maintained chilled throughout processing. Each plasma sample was then transferred into labeled polypropylene tubes, placed on dry ice, and stored in a freezer set to maintain −60° C. to −80° C.
Plasma study samples were extracted and analyzed using a previously developed method. A single standard curve and six replicates of quality control samples at three concentrations were extracted using DMSO containing 0.1% formic acid. Plasma samples (50 μL) were added to 150 μL solvent and centrifuged. Supernatants were analyzed by LC/MSMS using a Perkin Elmer series 200 micropump and PE Sciex API4000 Electrospray mass spectrometer. Standard curves were prepared at concentrations of 10000, 5000, 1000, 500, 250, 100, 50 and 25 ng/mL. Quality control samples were prepared at concentrations of 5000, 500, and 50 ng/mL. The standard curve and quality control samples were prepared from independently prepared stock solutions. At least ⅝ of standards must have accuracy within ±15%, except at the LLOQ where ±20% is acceptable. Two thirds of the batch QCs must have accuracy within ±15% of nominal, and at least one QC must pass at each level in order for the run to be accepted.
Individual plasma concentration versus time data for Compound A was subjected to non-compartmental analysis using the pharmacokinetic program WinNonlin v4.1. Plasma concentrations below the limit of quantitation (25 ng/ml) were assigned a value of zero for pharmacokinetic analysis. Nominal dosing concentrations were used in all calculations.

[15] = rat, in vivo, iv
Protocol: (§3) Maximum tolerated dose (MTD) determinations were made in ascending/descending dose studies in mice and rats. Compound A was administered by either i.v. bolus injection in the tail vein of mice and rats or by i.v. infusion via catheter in the femoral vein of rats. At each dose, two to three animals were administered compound and clinical signs were recorded over a 4 to 7 day period. Gross necropsy was performed at the conclusion of the study.

[16] = in vivo; conditions: mouse, iv
Protocol: as §3

[17] = in vivo; conditions: rat, iv
Protocol: as §3

Q: Which results are given for `N=C(N)NCCCCC(=O)Nc1cc(C(F)(F)F)cc(NC(=O)c2cc(C(=O)Nc3cc(C(F)(F)F)cc(NC(=O)CCCCNC(=N)N)c3O[C@H]3CCNC3)ncn2)c1O[C@H]1CCNC1` [Compound A, pyrimidine-4,6-dicarboxylic acid bis-{[3-(5-guanidino-pentanoylamino)-2-((R)-pyrrolidin-3-yloxy)-5-trifluoromethyl-phenyl]-amide}tetrahydrochloride]?
A: MIC [1]: 1 µg/mL; MIC [2]: 1 µg/mL; MIC [3]: 0.5 to 1 µg/mL; MIC [4]: 0.25 to 0.5 µg/mL; MIC [5]: 0.25 to 0.5 µg/mL; MIC [6]: 0.25 to 0.5 µg/mL; MIC [7]: 2 µg/mL; MIC [8]: 4 to 8 µg/mL; MIC [9]: 1 to 4 µg/mL; MIC [10]: 2 to 8 µg/mL; MIC [11]: 2 to 8 µg/mL; efficacy in vivo [12]: efficacious; protection from mortality ([13]; 2×5 mg/kg i.v.): full protection; protection from mortality ([13]; 2×10 mg/kg i.v.): full protection; efficacy relative to vancomycin treatment group ([13]; 3, 5, 10 mg/kg/dose i.v.): comparable to the vancomycin treatment group; Cmax [14]: 89.2 µg/mL; Vd [14]: 0.11 L/kg; clearance [14]: 0.467 mL/min/kg; half-life [14]: 180 min; MTD [15]: >24 mg/kg; MTD [16]: 30 mg/kg; MTD [17]: > 24 mg/kg
